{"source": "patent US10512644B2", "about": "“Oligomer-opioid agonist conjugates” (Nektar Therapeutics, priority 2007, dated 2019)", "key": {"in vivo": {"assay": "in vivo", "conditions": "rat, iv, 25 mg/kg"}, "[1]": {"biological_target": "recombinant human delta opioid receptor (Homo sapiens (Human), UniProt P41143)", "sequence (P41143 whole entry, looked up)": "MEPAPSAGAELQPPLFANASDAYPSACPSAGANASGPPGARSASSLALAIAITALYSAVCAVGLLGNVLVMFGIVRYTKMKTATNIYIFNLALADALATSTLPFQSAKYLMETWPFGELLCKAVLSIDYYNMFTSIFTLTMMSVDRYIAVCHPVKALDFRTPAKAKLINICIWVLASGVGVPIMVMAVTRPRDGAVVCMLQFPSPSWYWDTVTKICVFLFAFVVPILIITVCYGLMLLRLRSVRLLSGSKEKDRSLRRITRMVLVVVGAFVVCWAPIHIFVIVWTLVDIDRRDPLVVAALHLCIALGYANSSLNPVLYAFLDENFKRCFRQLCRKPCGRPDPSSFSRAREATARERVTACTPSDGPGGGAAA", "assay": "Radioligand competition binding in whole CHO cells, delta opioid receptor (3H DPDPE)", "procedure": "(§1) Using conventional receptor binding assay techniques, several molecules were assayed to determine binding activity at kappa, mu and delta opioid subtypes of opioid receptors.\n(§2) Cells were plated in 24 well plates at a density of 0.2-0.3*10^6 cells/well and washed with assay buffer containing 50 mM Tris.HCl and 5 mM MgCl2 (pH 7.4). Competition binding assays were conducted in whole cells incubated with increasing concentrations of test compounds in the presence of appropriate concentration of radioligand. 0.5 nM ^3H Naloxone, 0.5 nM ^3H Diprenorphine and 0.5 nM ^3H DPDPE were used as the competing radioligands for mu, kappa and delta receptors respectively. Incubations were carried out for two hours at room temperature using triplicate wells at each concentration. At the end of the incubation, cells were washed with 50 mM Tris HCl (pH 8.0), solubilized with NaOH and bound radioactivity was measured using a scintillation counter.\n(§3) Specific binding is determined by subtraction of the cpm bound in the presence of 50-100× excess of cold ligand. Binding data assays were analyzed using GraphPad Prism 4.0 and IC50 is generated by non-linear regression from dose-response curves."}, "mu opioid receptor [2]": {"biological_target": "T1, mu opioid receptor (Homo sapiens (Human), UniProt P35372)", "assay": "cell-based", "format": "binding", "conditions": "whole CHO cells, 0.5 nM 3H Naloxone; read-out: Ki at MU Receptors", "procedure": "as §1, §2, §3"}, "[3]": {"biological_target": "T2, recombinant human kappa opioid receptor (Homo sapiens (Human), UniProt P41145)", "assay": "cell-based", "format": "binding", "conditions": "whole CHO cells, 0.5 nM 3H Diprenorphine; read-out: Ki at KAPPA receptors", "procedure": "as §1, §2, §3"}, "[4]": {"biological_target": "T2, recombinant human kappa opioid receptor", "assay": "biochemical", "conditions": "agonist mode; read-out: Kappa Agonist EC50, GTP-γS Binding", "experimental": "(§4) The reaction is initiated by 0.3 nM [^35S]GTPγS for an additional 30 minutes incubation period. Test compound-induced increase of [^35S]GTPγS binding by 50 percent or more (≥50%) relative to the receptor subtype-specific agonist response indicates possible opiate receptor agonist activity."}, "mu opioid receptor [5]": {"biological_target": "T1, mu opioid receptor", "assay": "biochemical", "conditions": "antagonist mode vs 1 μM DAMGO; read-out: Mu Antagonist IC50, GTP-γS Binding", "experimental": "as §4"}, "[6]": {"tested_on": "CD-1 male mice (phenylquinone-induced writhing, visceral pain)", "assay": "Phenylquinone writhing analgesic assay", "format": "in vivo", "conditions": "mPEGn-O-HydroxyCodone series, writhing 35-45 min after pretreatment", "procedure": "Mice were treated according to standard protocols. Mice were given a single “pretreatment” dose of a compound lacking covalent attachment of a water-soluble, non-peptidic oligomer (i.e., non-PEG oligomer-modified parent molecule), a corresponding version comprising the compound covalently attached to a water-soluble, non-peptidic oligomer (i.e., the conjugate), or control solution (IV, SC, IP or orally) thirty minutes prior to the administration of the phenylquinone (PQ) solution. Each animal was given an IP injection of an irritant (phenylquinone, PQ) that induces “writhing” which may include: contractions of the abdomen, twisting and turning of the trunk, arching of the back, and the extension of the hindlimbs. Each animal was given an IP injection of PQ (1 mg/kg PQ, 0.1 mL/10 g bodyweight). After the injection, the animals were returned to their observation enclosure and their behavior was observed. Contractions were counted between 35 and 45 minutes after the “pretreatment”. The animals were used once. Each tested article was dosed at a range between 0.1 and 100 mg/kg (n=5-10 animals/dose)."}, "mu opioid receptor [7]": {"biological_target": "T1, mu opioid receptor", "format": "binding", "conditions": "mean IC50 ratio, ↓ = lower affinity", "procedure": "Using conventional in vitro mu opioid receptor binding affinity assays, IC50 values were determined for each of alpha-6-mPEGn-O-hydrocodonol compounds."}, "[8]": {"assay": "Plasma pharmacokinetics after intravenous dosing in male Sprague-Dawley rats", "conditions": "IV 1 mg/kg, PEGylated hydroxycodone"}, "[9]": {"biological_target": "cloned human mu opioid receptor (Homo sapiens (Human), UniProt P35372)", "format": "cell-based", "conditions": "inhibition of cAMP formation, 3 μM forskolin, whole cells", "procedure": "The efficacy of the various PEG-opioid conjugates was measured by their ability to inhibit cAMP formation following receptor activation. Studies were conducted in CHO cells heterologously expressing the cloned human mu, kappa or delta opioid receptors. cAMP was measured using a cAMP HiRange homogenous time-resolved fluorescence assay (HTRF Assay), that is based on a competitive immunoassay principle (Cisbio, Cat.#62AM6PEC).\nBriefly, suspensions of cells expressing either the mu, kappa or delta opioid receptors were prepared in buffer containing 0.5 mM isobutyl-methyl xanthine (IBMX). […] EC50 values were calculated for each compound from a sigmoidal dose-response plot of concentrations versus maximum response. To determine if the compounds behaved as full or partial agonists in the system, the maximal response at the highest tested concentrations of compounds were compared to that produced by a known full agonist."}}, "note": "Read-outs that look alike come from different tables or passages of the source."}
{"compound": "COCCOCCOCCO[C@H]1CC[C@@]2(O)[C@H]3Cc4ccc(O)c5c4[C@@]2(CCN3CC2CCC2)[C@H]1O5", "note": "[6-O-mPEG3-Nalbuphine, 6-O-mPEG3-nalbuphine]", "values": [{"measurement": "Kp at 1 h", "setting": "in vivo", "value": 0.23}, {"measurement": "Ki", "setting": "[1]", "value": 163, "unit": "nM"}, {"measurement": "Ki", "setting": "mu opioid receptor [2]", "value": 27.4, "unit": "nM"}, {"measurement": "Ki", "setting": "[3]", "value": 218, "unit": "nM"}, {"measurement": "EC50", "setting": "[4]", "value": 26.8, "unit": "nM"}, {"measurement": "IC50", "setting": "mu opioid receptor [5]", "value": 398, "unit": "nM"}]}
{"compound": "COCCOCCOCCOCCO[C@H]1CC[C@@]2(O)[C@H]3Cc4ccc(O)c5c4[C@@]2(CCN3CC2CCC2)[C@H]1O5", "note": "[6-O-mPEG4-Nalbuphine, 6-O-mPEG4-nalbuphine]", "values": [{"measurement": "Ki", "setting": "[1]", "value": 149, "unit": "nM"}, {"measurement": "Ki", "setting": "mu opioid receptor [2]", "value": 17.5, "unit": "nM"}]}
{"compound": "COc1ccc2c3c1O[C@H]1C(=O)CC[C@@]4(O)[C@@H](C2)N(C)CC[C@]314", "note": "[Oxycodone, oxycodone, reference compound]", "values": [{"measurement": "ED50", "setting": "[6]; Mus musculus, read-out: ED50", "value": 0.619, "unit": "mg/kg"}]}
{"compound": "COc1ccc2c3c1O[C@H]1[C@@H](O)CC[C@H]4[C@@H](C2)N(C)CC[C@@]341", "note": "[α-6-Hydrocodonol, 6-hydrocodonol, reference compound]", "values": [{"measurement": "Fold Change vs. Hydrocodone", "setting": "mu opioid receptor [7]", "value": "7.50 ↓"}]}
{"compound": "COCCO[C@H]1CC[C@H]2[C@H]3Cc4ccc(OC)c5c4[C@@]2(CCN3C)[C@H]1O5", "note": "[α-6-mPEG1-O-Hydrocodonol]", "values": [{"measurement": "Fold Change vs. Hydrocodone", "setting": "mu opioid receptor [7]", "value": "6.03 ↓"}]}
{"compound": "COCCO[C@H]1CC[C@@]2(O)[C@H]3Cc4ccc(OC)c5c4[C@@]2(CCN3C)[C@H]1O5", "note": "[α-6-mPEG1-O-Hydroxycodone, α-6-mPEG1-O-hydroxycodone]", "values": [{"measurement": "mean exposure (AUC) as compared to oxycodone", "setting": "[8]", "value": "slightly lower mean exposure"}, {"measurement": "ED50", "setting": "[6]", "value": 6.064, "unit": "mg/kg"}]}
{"compound": "COCCOCCO[C@H]1CC[C@H]2[C@H]3Cc4ccc(OC)c5c4[C@@]2(CCN3C)[C@H]1O5", "note": "[α-6-mPEG2-O-Hydrocodonol]", "values": [{"measurement": "Fold Change vs. Hydrocodone", "setting": "mu opioid receptor [7]", "value": "5.84 ↓"}]}
{"compound": "COCCOCCO[C@H]1CC[C@@]2(O)[C@H]3Cc4ccc(OC)c5c4[C@@]2(CCN3C)[C@H]1O5", "note": "[α-6-mPEG2-O-Hydroxycodone, α-6-mPEG2-O-hydroxycodone]", "values": [{"measurement": "mean exposure (AUC) as compared to oxycodone", "setting": "[8]", "value": "slightly lower mean exposure"}]}
{"compound": "COCCOCCOCCO[C@H]1CC[C@H]2[C@H]3Cc4ccc(OC)c5c4[C@@]2(CCN3C)[C@H]1O5", "note": "[α-6-mPEG3-O-Hydrocodonol]", "values": [{"measurement": "Fold Change vs. Hydrocodone", "setting": "mu opioid receptor [7]", "value": "5.87 ↓"}]}
{"compound": "COCCOCCOCCOCCO[C@H]1CC[C@H]2[C@H]3Cc4ccc(OC)c5c4[C@@]2(CCN3C)[C@H]1O5", "note": "[α-6-mPEG4-O-Hydrocodonol]", "values": [{"measurement": "Fold Change vs. Hydrocodone", "setting": "mu opioid receptor [7]", "value": "7.14 ↓"}]}
{"compound": "COCCOCCOCCOCCO[C@H]1CC[C@@]2(O)[C@H]3Cc4ccc(OC)c5c4[C@@]2(CCN3C)[C@H]1O5", "note": "[α-6-mPEG4-O-Hydroxycodone, α-6-mPEG4-O-hydroxycodone]", "values": [{"measurement": "mean exposure (AUC) as compared to oxycodone", "setting": "[8]", "value": "slightly lower mean exposure"}, {"measurement": "ED50", "setting": "[6]", "value": 17.31, "unit": "mg/kg"}]}
{"compound": "COCCOCCOCCOCCOCCO[C@H]1CC[C@H]2[C@H]3Cc4ccc(OC)c5c4[C@@]2(CCN3C)[C@H]1O5", "note": "[α-6-mPEG5-O-Hydrocodonol]", "values": [{"measurement": "Fold Change vs. Hydrocodone", "setting": "mu opioid receptor [7]", "value": "6.20 ↓"}]}
{"compound": "COCCOCCOCCOCCOCCOCCO[C@H]1CC[C@H]2[C@H]3Cc4ccc(OC)c5c4[C@@]2(CCN3C)[C@H]1O5", "note": "[α-6-mPEG6-O-Hydrocodonol]", "values": [{"measurement": "Fold Change vs. Hydrocodone", "setting": "mu opioid receptor [7]", "value": "11.12 ↓"}]}
{"compound": "COCCOCCOCCOCCOCCOCCO[C@H]1CC[C@@]2(O)[C@H]3Cc4ccc(OC)c5c4[C@@]2(CCN3C)[C@H]1O5", "note": "[α-6-mPEG6-O-Hydroxycodone, α-6-mPEG6-O-hydroxycodone]", "values": [{"measurement": "mean exposure (AUC) as compared to oxycodone", "setting": "[8]", "value": "comparable mean exposure"}]}
{"compound": "COCCOCCOCCOCCOCCOCCOCCO[C@H]1CC[C@H]2[C@H]3Cc4ccc(OC)c5c4[C@@]2(CCN3C)[C@H]1O5", "note": "[α-6-mPEG7-O-Hydrocodonol]", "values": [{"measurement": "Fold Change vs. Hydrocodone", "setting": "mu opioid receptor [7]", "value": "26.32 ↓"}]}
{"compound": "COCCOCCOCCOCCOCCOCCOCCO[C@H]1CC[C@@]2(O)[C@H]3Cc4ccc(OC)c5c4[C@@]2(CCN3C)[C@H]1O5", "note": "[α-6-mPEG7-O-Hydroxycodone, α-6-mPEG7-O-hydroxycodone]", "values": [{"measurement": "mean exposure (AUC) as compared to oxycodone", "setting": "[8]", "value": "higher mean exposure"}]}
{"compound": "COCCOCCOCCOCCOCCOCCOCCOCCO[C@H]1CC[C@H]2[C@H]3Cc4ccc(OC)c5c4[C@@]2(CCN3C)[C@H]1O5", "note": "[α-6-mPEG8-O-Hydrocodonol]", "values": [{"measurement": "Fold Change vs. Hydrocodone", "setting": "mu opioid receptor [7]", "value": "40.10 ↓"}]}
{"compound": "COCCOCCOCCOCCOCCOCCOCCOCCOCCO[C@H]1CC[C@H]2[C@H]3Cc4ccc(OC)c5c4[C@@]2(CCN3C)[C@H]1O5", "note": "[α-6-mPEG9-O-Hydrocodonol]", "values": [{"measurement": "Fold Change vs. Hydrocodone", "setting": "mu opioid receptor [7]", "value": "16.30 ↓"}]}
{"compound": "α-6-hydroxycodone", "values": [{"measurement": "EC50", "setting": "[9]", "value": 3160, "unit": "nM"}]}
